The source of these data is PubChem BioAssay (NCI).

The structures appear in SMILES notation.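 Method: 48-hour compound exposure of cells in 96-well plates, five concentrations, linear interpolation of endpoints. GI50 = concentration required for 50% inhibition of growth. TGI marks complete inhibition of growth.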

Among the test systems are CAKI-1 renal; EKVX NSCLC; K-562 leukemia; NCI-H460 lung; NCI/ADR-RES ovarian; T-47D breast; UACC-62 melanoma; CCRF-CEM leukemia; HCC-2998 colon; SK-OV-3 ovarian; MCF7 breast.
Common to all, as to test: inhibition of tumour cell growth, NCI panel, 48 h

For `O=C(O)CSc1cc(-c2ccccc2)nc2ccccc12`, the TGI with CAKI-1 renal, with EKVX NSCLC, with K-562 leukemia, with NCI-H460 lung, with NCI/ADR-RES ovarian and in the experiment with T-47D breast was greater than 100 µM throughout. The TGI in the experiment with UACC-62 melanoma is greater than 100 µM.
Consider `c1ccc(N=C2SC(=NNc3ccccc3)SC2=Nc2ccccc2)cc1`, for which the TGI in the experiment on CAKI-1 renal, with CCRF-CEM leukemia, in the experiment with EKVX NSCLC, with HCC-2998 colon, in the experiment with K-562 leukemia and in the experiment on NCI-H460 lung was greater than 100 µM in each case. Moreover, the TGI in the experiment with NCI/ADR-RES ovarian, in the experiment with SK-OV-3 ovarian, in the experiment with T-47D breast and in the experiment with UACC-62 melanoma was greater than 100 µM in each case.
On to `Cc1csc2nc(-c3ccc([N+](=O)[O-])cc3)c(/C=N/N=C(N)N)n12`, for which the TGI with CAKI-1 renal is 12.6 µM; in the experiment with CCRF-CEM leukemia it was 4.11 µM; in the experiment with EKVX NSCLC, 2.73 µM; in the experiment with HCC-2998 colon it was 1.59 µM; in the experiment with NCI-H460 lung, 3.43 µM; with NCI/ADR-RES ovarian, greater than 50.8 µM. Further, the TGI with SK-OV-3 ovarian is 3.11 µM; in the experiment with T-47D breast, greater than 100 µM; in the experiment on UACC-62 melanoma, 3.17 µM.
As for `O=C(NO)c1coc2ccccc2c1=O`, the TGI in the experiment on CAKI-1 renal is 68.5 µM; in the experiment with CCRF-CEM leukemia, greater than 100 µM; in the experiment with EKVX NSCLC, greater than 100 µM; in the experiment on HCC-2998 colon it was greater than 100 µM; in the experiment on K-562 leukemia, greater than 100 µM; in the experiment with SK-OV-3 ovarian it was 31.4 µM. Further, in the experiment on UACC-62 melanoma, the TGI was greater than 100 µM.
Take `CCOP(=O)(Nc1ccc(-c2ccccc2)cc1)OCC`: the TGI with CAKI-1 renal, with EKVX NSCLC, in the experiment with HCC-2998 colon, in the experiment with K-562 leukemia, with MCF7 breast and with NCI-H460 lung was greater than 100 µM in each case. The TGI in the experiment with NCI/ADR-RES ovarian, with SK-OV-3 ovarian and in the experiment with UACC-62 melanoma was greater than 100 µM throughout.
Turning to `Cc1nc2c(o1)C(=O)c1ccccc1/C2=N/c1ccccn1`, the TGI was 47.9 µM in the experiment on CAKI-1 renal; 65.7 µM with CCRF-CEM leukemia; 41.6 µM in the experiment on EKVX NSCLC; greater than 100 µM in the experiment with HCC-2998 colon; greater than 100 µM in the experiment with K-562 leukemia; 33.9 µM with MCF7 breast. For the same compound, the TGI in the experiment with NCI-H460 lung was 29.8 µM; in the experiment with NCI/ADR-RES ovarian, 56.9 µM; in the experiment on SK-OV-3 ovarian it was greater than 100 µM; in the experiment with UACC-62 melanoma, 34.9 µM.
Take `CC(=O)[O-].CC(=O)[O-].O=C(N/N=C/c1cc(Cl)cc(Cl)c1[OH2+])c1ccncc1.[Co+2]`: the TGI with CCRF-CEM leukemia, with EKVX NSCLC, with HCC-2998 colon, with K-562 leukemia, with NCI-H460 lung and with SK-OV-3 ovarian was greater than 100 µM in each case. The same compound came in with a TGI in the experiment on UACC-62 melanoma greater than 100 µM.
For `CC1(O)CC2C(CC1SCCO)C2(C)C` (stereo unspecified), the TGI in the experiment on CCRF-CEM leukemia, in the experiment on EKVX NSCLC, in the experiment on HCC-2998 colon, in the experiment with K-562 leukemia, in the experiment with NCI-H460 lung and in the experiment on SK-OV-3 ovarian was greater than 100 µM in each case.
Turning to `N#Cc1c(-c2ccccc2)/c(=C\O)c(=O)n2c1nc1ccccc12`, the TGI with CAKI-1 renal, in the experiment with CCRF-CEM leukemia, in the experiment with EKVX NSCLC, in the experiment on K-562 leukemia, in the experiment on NCI-H460 lung and with NCI/ADR-RES ovarian was greater than 100 µM in each case. The TGI in the experiment with SK-OV-3 ovarian, in the experiment with T-47D breast and in the experiment with UACC-62 melanoma was greater than 100 µM throughout.
For `CCSC1=N/C(=C\c2ccccc2O)C(Nc2ccc(C)cc2)=N1`, the TGI with CAKI-1 renal, with CCRF-CEM leukemia, in the experiment with EKVX NSCLC, in the experiment with K-562 leukemia, in the experiment on NCI-H460 lung and in the experiment with NCI/ADR-RES ovarian was greater than 100 µM each time. Besides, the TGI in the experiment with SK-OV-3 ovarian, in the experiment on T-47D breast and in the experiment with UACC-62 melanoma was greater than 100 µM throughout.
As to `O=C1c2ccccc2-c2nc(-c3cccnc3)cc3c2c1nc1ccccc13`, the TGI with CAKI-1 renal, with CCRF-CEM leukemia, with EKVX NSCLC, with HCC-2998 colon, with K-562 leukemia and in the experiment with MCF7 breast was greater than 100 µM throughout. Also, the TGI in the experiment with NCI-H460 lung, in the experiment on NCI/ADR-RES ovarian, in the experiment on SK-OV-3 ovarian and with UACC-62 melanoma was greater than 100 µM in each case.
For `COc1cccc2cc(C(N)=O)c(=N)oc12`, the TGI in the experiment on CAKI-1 renal, in the experiment on CCRF-CEM leukemia, in the experiment on EKVX NSCLC, with HCC-2998 colon, in the experiment with K-562 leukemia and in the experiment on NCI-H460 lung was greater than 100 µM throughout. The TGI in the experiment on NCI/ADR-RES ovarian, in the experiment with SK-OV-3 ovarian, in the experiment on T-47D breast and with UACC-62 melanoma was greater than 100 µM each time.
Take `Cc1c(-c2cc3n(n2)C(c2cccs2)C(C#N)=C(c2ccccc2)N3)c(=O)n(-c2ccccc2)n1C` (stereo unspecified): the TGI with CAKI-1 renal was 84.2 µM; in the experiment with CCRF-CEM leukemia, greater than 100 µM; with EKVX NSCLC it was greater than 100 µM; in the experiment with HCC-2998 colon, greater than 100 µM; in the experiment with K-562 leukemia, greater than 100 µM; in the experiment on MCF7 breast, greater than 100 µM. For the same compound, the TGI in the experiment on NCI-H460 lung, in the experiment on NCI/ADR-RES ovarian, in the experiment on SK-OV-3 ovarian and in the experiment with UACC-62 melanoma was greater than 100 µM in each case.
Turning to `CC(=O)c1ccc(Oc2ccc(/C(C)=N\N=C(N)N)cc2)cc1`, the TGI stood at 10.4 µM with CCRF-CEM leukemia; 16.7 µM in the experiment on EKVX NSCLC; 20.8 µM in the experiment on HCC-2998 colon; 10.5 µM with NCI-H460 lung; 9.25 µM in the experiment with SK-OV-3 ovarian; 10.1 µM with UACC-62 melanoma.
As for `CC(C)(C)[Si](C)(C)OCCCC#CCO`, the TGI in the experiment on CAKI-1 renal, in the experiment on CCRF-CEM leukemia, in the experiment on EKVX NSCLC, with HCC-2998 colon, in the experiment with K-562 leukemia and with NCI-H460 lung was greater than 100 µM in each case. Further, the TGI with SK-OV-3 ovarian and with UACC-62 melanoma was greater than 100 µM in each case.
For `C=C(C=O)c1c2c(nc3ccccc13)C(=O)c1ccccc1C2=O`, the TGI with CAKI-1 renal is 0.795 µM; in the experiment on CCRF-CEM leukemia, 0.792 µM; in the experiment with EKVX NSCLC, 3.61 µM; in the experiment with HCC-2998 colon, greater than 100 µM; with K-562 leukemia, greater than 22.5 µM; in the experiment on SK-OV-3 ovarian, 12.8 µM. In addition, the TGI in the experiment with T-47D breast stood at 3.29 µM; in the experiment on UACC-62 melanoma, 2.59 µM.
Take `CC1CCCC2=C1C(c1ccc(Cl)cc1)n1c(s/c(=C\c3ccc(Cl)cc3)c1=O)=N2` (stereo unspecified): the TGI with CAKI-1 renal, with CCRF-CEM leukemia, in the experiment with EKVX NSCLC, with K-562 leukemia, in the experiment with MCF7 breast and in the experiment on SK-OV-3 ovarian was greater than 100 µM each time. Further, the TGI in the experiment on T-47D breast and with UACC-62 melanoma was greater than 100 µM in each case.
On to `CC(=O)O[C@H]1CC[C@]2(C)[C@H]3CC[C@@H]4[C@H]5[C@H](C(C)C)CC[C@]5(C(=O)OCC(CO)(CO)N=C(N)N)CC[C@@]4(C)[C@]3(C)CC[C@H]2C1(C)C`, for which the GI50 in the experiment with CAKI-1 renal was 1.46 µM; with CCRF-CEM leukemia, 2.24 µM; with EKVX NSCLC it was 1.8 µM; with NCI/ADR-RES ovarian, 2.23 µM; in the experiment with SK-OV-3 ovarian it was 2 µM; in the experiment with T-47D breast, 1.51 µM. For the same compound, the TGI stood at 2.98 µM in the experiment on CAKI-1 renal; 5.51 µM in the experiment with CCRF-CEM leukemia; 3.53 µM in the experiment with EKVX NSCLC; 5.17 µM with NCI/ADR-RES ovarian; 3.96 µM in the experiment on SK-OV-3 ovarian; 2.91 µM with T-47D breast.
In the case of `NC(=O)CCC(NCc1c2ccccc2[n+]([O-])c2ccccc12)C(=O)O` (stereo unspecified), the TGI with CAKI-1 renal, with CCRF-CEM leukemia, in the experiment with EKVX NSCLC, in the experiment on HCC-2998 colon, in the experiment with K-562 leukemia and with NCI-H460 lung was greater than 100 µM in each case. Moreover, the TGI in the experiment with SK-OV-3 ovarian and in the experiment on UACC-62 melanoma was greater than 100 µM throughout.
Regarding `COc1cc(OC)c2c(c1OC)OCC(Cc1ccc(O)cc1)C2=O` (stereo unspecified), the TGI with CAKI-1 renal, in the experiment with CCRF-CEM leukemia, in the experiment on K-562 leukemia, in the experiment on NCI-H460 lung, in the experiment with NCI/ADR-RES ovarian and in the experiment on SK-OV-3 ovarian was greater than 25 µM in each case. For the same compound, the TGI with T-47D breast and in the experiment with UACC-62 melanoma was greater than 25 µM each time.
In the case of `Cc1cccc(Nc2cn(COCc3ccccc3)c(=O)[nH]c2=O)c1`, the TGI with CAKI-1 renal, in the experiment on CCRF-CEM leukemia, in the experiment with EKVX NSCLC, in the experiment with HCC-2998 colon, in the experiment with K-562 leukemia and with MCF7 breast was greater than 100 µM each time. Moreover, the TGI in the experiment on NCI-H460 lung was greater than 100 µM; with NCI/ADR-RES ovarian, 90 µM; in the experiment on UACC-62 melanoma, greater than 100 µM.
In the case of `COC(=O)CC1(CNC(=O)OCc2ccccc2)OCCO1`, the TGI in the experiment on CAKI-1 renal, in the experiment with CCRF-CEM leukemia, with EKVX NSCLC, in the experiment with HCC-2998 colon, in the experiment with K-562 leukemia and in the experiment with MCF7 breast was greater than 100 µM in each case. In addition, the TGI in the experiment with NCI-H460 lung, in the experiment on NCI/ADR-RES ovarian, with SK-OV-3 ovarian and in the experiment with UACC-62 melanoma was greater than 100 µM each time.
As for `C=C1c2c(cc3c(c2O)c(=O)c2ccccc2n3C)OC1(C)C`, the TGI with CAKI-1 renal is greater than 100 µM; with CCRF-CEM leukemia, greater than 100 µM; with EKVX NSCLC, greater than 100 µM; in the experiment with NCI-H460 lung, greater than 100 µM; in the experiment with SK-OV-3 ovarian, 97.2 µM; in the experiment on UACC-62 melanoma it was greater than 100 µM.
